# In patent US10590113B2, “6-hydroxy-4-oxo-1,4-dihydropyrimidine-5-carboxamides as APJ agonists” (priority 2016, dated 2020):
# Target: T1, human APJ receptor (Homo sapiens, UniProt P35414)
# T1 construct: expressed in transfected cells; host or cells: HEK293
# T1 sequence (P35414 1-380): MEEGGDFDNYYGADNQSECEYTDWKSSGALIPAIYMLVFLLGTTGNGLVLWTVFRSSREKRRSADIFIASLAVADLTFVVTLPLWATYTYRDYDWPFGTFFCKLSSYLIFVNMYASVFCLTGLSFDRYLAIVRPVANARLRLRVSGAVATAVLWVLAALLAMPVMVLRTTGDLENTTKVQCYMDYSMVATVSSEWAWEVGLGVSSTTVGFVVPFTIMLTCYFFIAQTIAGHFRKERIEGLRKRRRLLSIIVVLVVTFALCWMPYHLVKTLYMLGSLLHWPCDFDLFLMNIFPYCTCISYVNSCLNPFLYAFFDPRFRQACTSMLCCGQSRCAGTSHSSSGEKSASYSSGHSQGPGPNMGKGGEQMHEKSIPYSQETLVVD
# Assay: Intracellular cAMP Accumulation Assay (APJ hcAMP, HTRF)
# Type: cell-based
# Conditions: not given
# Protocol: Intracellular cAMP Accumulation Assay
# HEK293 cells stably expressing human APJ receptor were used to assess the activity of compounds. Cultured cells were detached and resuspended in the cAMP
# Homogeneous Time-Resolved Fluorescence (HTRF) assay buffer (Cisbio cat; #62AM4PEJ). The assay was performed in 384-well assay plates (Perkin-Elmer; cat #6008289) according to assay protocol provided by the manufacturer. Serial dilutions of a compound together with assay buffer containing […] IBMX and 2 μM forskolin were added to each well containing 5,000 cells and incubated for 30 minutes at room temperature. Subsequently, cAMP D2 reagent was added in the lysis buffer followed by the EuK antibody (Cisbio; cat #62AM4PEJ) and incubated for 60 min. The fluorescence emission ratio was measured using fluorometer. The intracellular cAMP concentrations (compound-stimulated inhibition of forskolin-mediated cAMP production) were calculated by extrapolation from a standard curve using known cAMP concentrations. The EC50 values were obtained by fitting the data to a sigmoidal concentration-response curve with variable slope.
# The EC50 value of each compound is presented at the end of the example description.
# The biological activity of the exemplified compounds of this invention determined by the assay described above is shown at the end of each example.
row,EC50 [nM],SMILES
1,0.01 to 10,"CCCCc1nc(=O)c(C(=O)N2CCC(c3ccccn3)C2)c(O)n1-c1c(OC)cccc1OC (single isomer, unassigned) [Example 68, 2-butyl-1-(2,6-dimethoxyphenyl)-6-hydroxy-5-[3-(pyridin-2-yl)pyrrolidine-1-carbonyl]-1,4-dihydropyrimidin-4-one]"

# Same assay, conditions: HEK293 cells stably expressing human APJ receptor; inhibition of forskolin-mediated cAMP production; read-out: Human APJ cAMP EC50 potency range
row,EC50 [nM],SMILES
1,0.01 to 10,"COc1cccc(OC)c1-n1c(CCC2CC2)nc(=O)c(C(=O)N2CC[C@@H](c3ccccc3)C2)c1O [Example 4, (S)-2-(2-Cyclopropylethyl)-1-(2,6-dimethoxyphenyl)-6-hydroxy-5-(3-phenylpyrrolidine-1-carbonyl)pyrimidin-4(1H)-one]"

# Same assay, conditions: human APJ, cAMP accumulation; potency range class; read-out: hAPJ cAMP EC50 Potency range
row,SMILES,EC50 [nM]
1,"CCc1cccc(CC)c1-n1c(-c2ccn(C)n2)nc(=O)c(C(=O)N2CC[C@H](c3ccccc3)C2)c1O [Example 283, 1-(2,6-diethylphenyl)-6-hydroxy-2-(1-methyl-1H-pyrazol-3-yl)-5-[(3R)-3-phenylpyrrolidine-1-carbonyl]-1,4-dihydropyrimidin-4-one]",0.01 to 10
2,"CCCc1nc(O)c(C(=O)N2CC[C@H](c3ccccc3)C2)c(=O)n1[C@@H](COC)c1ccccc1 [Example 329, 6-hydroxy-3-[(1R)-2-methoxy-1-phenylethyl]-5-[(3R)-3-phenylpyrrolidine-1-carbonyl]-2-propyl-3,4-dihydropyrimidin-4-one]",10 to 100
3,"CCCCc1nc(O)c(C(=O)N2CCC(c3ncc(F)cc3F)C2)c(=O)n1[C@@H](CC)c1ccccc1 (single isomer, unassigned) [Example 345]",0.01 to 10
4,"CCc1cccc(CC)c1-n1c(COC(C)C)nc(=O)c(C(=O)N2CCC(c3ccncc3)C2)c1O (single isomer, unassigned) [Example 221, 1-(2,6-diethylphenyl)-6-hydroxy-2-[(propan-2-yloxy)methyl]-5-[3-(pyridin-4-yl)pyrrolidine-1-carbonyl]-1,4-dihydropyrimidin-4-one]",10 to 100
5,"COc1cccc(OC)c1-n1c(-c2ccc(F)cc2)nc(=O)c(C(=O)N2CCC(c3ncc(Cl)cc3F)C2)c1O (single isomer, unassigned) [Example 265, 5-[3-(5-chloro-3-fluoropyridin-2-yl)pyrrolidine-1-carbonyl]-1-(2,6-dimethoxyphenyl)-2-(4-fluorophenyl)-6-hydroxy-1,4-dihydropyrimidin-4-one]",0.01 to 10

# Other lines, results leading:
row,EC50 [nM],SMILES
1,0.01 to 10,"COc1cccc(-c2nc(=O)c(C(=O)N3CCC(c4ncc(Cl)cc4F)C3)c(O)n2-c2c(OC)cccc2OC)c1 (single isomer, unassigned) [Example 261, 5-[3-(5-chloro-3-fluoropyridin-2-yl)pyrrolidine-1-carbonyl]-1-(2,6-dimethoxyphenyl)-6-hydroxy-2-(3-methoxyphenyl)-1,4-dihydropyrimidin-4-one]"
2,0.01 to 10,"COc1cccc(OC)c1-n1c(-c2cccc(C)n2)nc(=O)c(C(=O)N2CCC(c3ccccc3F)C2)c1O (single isomer, unassigned) [Example 236, 1-(2,6-dimethoxyphenyl)-5-[3-(2-fluorophenyl)pyrrolidine-1-carbonyl]-6-hydroxy-2-(6-methylpyridin-2-yl)-1,4-dihydropyrimidin-4-one]"
3,0.01 to 10,"COc1cccc(-c2nc(=O)c(C(=O)N3CCC(c4ncc(F)cc4F)C3)c(O)n2-c2c(OC)cccc2OC)c1 (single isomer, unassigned) [Example 246, 5-[3-(3,5-difluoropyridin-2-yl)pyrrolidine-1-carbonyl]-1-(2,6-dimethoxyphenyl)-6-hydroxy-2-(3-methoxyphenyl)-1,4-dihydropyrimidin-4-one]"
4,0.01 to 10,"COc1cccc(OC)c1-n1c(-c2ccc(Cl)cn2)nc(=O)c(C(=O)N2CCC(c3c(F)cccc3F)C2)c1O (single isomer, unassigned) [Example 280, 2-(5-chloropyridin-2-yl)-5-[3-(2,6-difluorophenyl)pyrrolidine-1-carbonyl]-1-(2,6-dimethoxyphenyl)-6-hydroxy-1,4-dihydropyrimidin-4-one]"
5,0.01 to 10,"CCOCc1nc(=O)c(C(=O)N2CCC(c3ccccc3C#N)C2)c(O)n1-c1c(OC)cccc1OC (single isomer, unassigned) [Example 362, 2-(1-(1-(2,6-dimethoxyphenyl)-2-(ethoxymethyl)-6-hydroxy-4-oxo-1,4-dihydropyrimidine-5-carbonyl)pyrrolidin-3-yl)benzonitrile]"

# Same assay, conditions: human APJ, intracellular cAMP accumulation; read-out: hAPJ cAMP EC50 Potency range
row,SMILES,EC50 [nM]
1,"CC[C@@H](c1cc(F)cc(F)c1)n1c(-c2nc(C)cs2)nc(=O)c(C(=O)N2CCC(c3ccccc3OC)C2)c1O (single isomer, unassigned) [Example 207]",0.01 to 10
2,"CC[C@@H](c1cc(F)cc(F)c1)n1c(-c2cnn(C)c2)nc(=O)c(C(=O)N2CCC(c3ccc(Cl)cn3)C2)c1O (single isomer, unassigned) [Example 187]",0.01 to 10
3,"CC[C@@H](c1cc(F)cc(F)c1)n1c(-c2ccn(CC)n2)nc(=O)c(C(=O)N2CCC(c3ncc(Cl)cc3F)C2)c1O (single isomer, unassigned) [Example 214]",0.01 to 10
4,"CCCCc1nc(=O)c(C(=O)N2CC[C@H](c3ccccc3)C2)c(O)n1C(C)c1ccccc1Cl (stereo partly drawn) [Example 134, 2-butyl-3-[1-(2-chlorophenyl)ethyl]-6-hydroxy-5-[(3R)-3-phenylpyrrolidine-1-carbonyl]-3,4-dihydropyrimidin-4-one]",10 to 100
5,"CC[C@@H](c1cc(F)cc(F)c1)n1c(-c2cnn(C)c2)nc(=O)c(C(=O)N2CCC(c3ccc(F)cn3)C2)c1O (single isomer, unassigned) [Example 191]",0.01 to 10
6,"CCCCc1nc(=O)c(C(=O)N2CCC(c3cccc(F)c3)C2)c(O)n1[C@@H](CC)c1ccccc1 (single isomer, unassigned) [Example 119]",0.01 to 10
7,"CCc1cccc(CC)c1-n1c(COC(C)C)nc(=O)c(C(=O)N2CCC(c3ccccn3)C2)c1O (single isomer, unassigned) [Example 18, 1-(2,6-diethylphenyl)-6-hydroxy-2-(isopropoxymethyl)-5-(3-(pyridin-2-yl)pyrrolidine-1-carbonyl)pyrimidin-4(1H)-one]",0.01 to 10

# More lines, now with the values ahead:
row,EC50 [nM],SMILES
1,0.01 to 10,"CCCCc1nc(=O)c(C(=O)N2CCC(c3ccc(F)cc3)C2)c(O)n1-c1c(OC)cccc1OC (single isomer, unassigned) [Example 77, 2-butyl-1-(2,6-dimethoxyphenyl)-5-[3-(4-fluorophenyl)pyrrolidine-1-carbonyl]-6-hydroxy-1,4-dihydropyrimidin-4-one]"
2,10 to 100,"CCCCc1nc(=O)c(C(=O)N2CCC(c3ccc(F)cc3)CC2)c(O)n1-c1c(OC)cccc1OC [Example 74, 2-butyl-1-(2,6-dimethoxyphenyl)-5-[4-(4-fluorophenyl)piperidine-1-carbonyl]-6-hydroxy-1,4-dihydropyrimidin-4-one]"
3,0.01 to 10,"CCCCc1nc(=O)c(C(=O)N2CC(c3cccc(Cl)c3)C2)c(O)n1-c1c(OC)cccc1OC [Example 88, 2-butyl-5-[3-(3-chlorophenyl)azetidine-1-carbonyl]-3-(2,6-dimethoxyphenyl)-6-hydroxy-3,4-dihydropyrimidin-4-one]"
4,0.01 to 10,"COc1cccc(OC)c1-n1c(COC2CC2)nc(=O)c(C(=O)N2CCC(c3ccc(F)cc3)C2)c1O (single isomer, unassigned) [Example 100, 2-(cyclopropoxymethyl)-1-(2,6-dimethoxyphenyl)-5-[3-(4-fluorophenyl)pyrrolidine-1-carbonyl]-6-hydroxy-1,4-dihydropyrimidin-4-one]"
5,0.01 to 10,"COc1cccc(OC)c1-n1c(COC(C)C)nc(=O)c(C(=O)N2CCC(c3ccc(F)cc3)C2)c1O (single isomer, unassigned) [Example 94, 1-(2,6-dimethoxyphenyl)-5-[3-(4-fluorophenyl)pyrrolidine-1-carbonyl]-6-hydroxy-2-[(propan-2-yloxy)methyl]-1,4-dihydropyrimidin-4-one]"
6,10 to 100,"CCCCc1nc(=O)c(C(=O)N2CCC(c3ccccc3)CC2)c(O)n1-c1c(OC)cccc1OC [Example 72, 2-butyl-1-(2,6-dimethoxyphenyl)-6-hydroxy-5-(4-phenylpiperidine-1-carbonyl)-1,4-dihydropyrimidin-4-one]"
7,0.01 to 10,"CCCCc1nc(=O)c(C(=O)N2CCC(c3ccc(F)cc3)C2)c(O)n1-c1c(OC)cccc1OC (stereo not drawn) [Example 87, 2-butyl-3-(2,6-dimethoxyphenyl)-5-[3-(4-fluorophenyl)pyrrolidine-1-carbonyl]-6-hydroxy-3,4-dihydropyrimidin-4-one]"

# Same assay, conditions: read-out: hAPJ cAMP EC50 Potency range
row,EC50 [nM],SMILES
1,0.01 to 10,"CCCCc1nc(=O)c(C(=O)N2CCC(Oc3cccc(F)c3F)CC2)c(O)n1-c1c(OC)cccc1OC [Example 387, 2-butyl-5-(4-(2,3-difluorophenoxy)piperidine-1-carbonyl)-1-(2,6-dimethoxyphenyl)-6-hydroxypyrimidin-4(1H)-one]"
